In assay [1] the target is T1, Recombinant human integrin ανβ6 (Homo sapiens, UniProt P06756+P18564).
T1 construct: purchased R&D Systems 3817-AV
In words: Solid Phase Receptor Assay (SPRA) for ανβ6 function. It is filed as binding. The settings on record: plate-bound human LAP; read-out: αvβ6 SPRA IC50.

For assay [2], the target named is T2, Recombinant human integrin ανβ5 (Homo sapiens, UniProt P06756+P18084).
T2 construct: purchased R&D Systems 2528-AV
Briefly: Solid Phase Receptor Assay (SPRA) for ανβ5 function. The class given is binding. The settings on record: plate-bound human vitronectin; read-out: αvβ5 SPRA IC50.

Structures can show the parent of a compound that is named as a salt.

T2 sequence (P06756 31-992 limits assumed): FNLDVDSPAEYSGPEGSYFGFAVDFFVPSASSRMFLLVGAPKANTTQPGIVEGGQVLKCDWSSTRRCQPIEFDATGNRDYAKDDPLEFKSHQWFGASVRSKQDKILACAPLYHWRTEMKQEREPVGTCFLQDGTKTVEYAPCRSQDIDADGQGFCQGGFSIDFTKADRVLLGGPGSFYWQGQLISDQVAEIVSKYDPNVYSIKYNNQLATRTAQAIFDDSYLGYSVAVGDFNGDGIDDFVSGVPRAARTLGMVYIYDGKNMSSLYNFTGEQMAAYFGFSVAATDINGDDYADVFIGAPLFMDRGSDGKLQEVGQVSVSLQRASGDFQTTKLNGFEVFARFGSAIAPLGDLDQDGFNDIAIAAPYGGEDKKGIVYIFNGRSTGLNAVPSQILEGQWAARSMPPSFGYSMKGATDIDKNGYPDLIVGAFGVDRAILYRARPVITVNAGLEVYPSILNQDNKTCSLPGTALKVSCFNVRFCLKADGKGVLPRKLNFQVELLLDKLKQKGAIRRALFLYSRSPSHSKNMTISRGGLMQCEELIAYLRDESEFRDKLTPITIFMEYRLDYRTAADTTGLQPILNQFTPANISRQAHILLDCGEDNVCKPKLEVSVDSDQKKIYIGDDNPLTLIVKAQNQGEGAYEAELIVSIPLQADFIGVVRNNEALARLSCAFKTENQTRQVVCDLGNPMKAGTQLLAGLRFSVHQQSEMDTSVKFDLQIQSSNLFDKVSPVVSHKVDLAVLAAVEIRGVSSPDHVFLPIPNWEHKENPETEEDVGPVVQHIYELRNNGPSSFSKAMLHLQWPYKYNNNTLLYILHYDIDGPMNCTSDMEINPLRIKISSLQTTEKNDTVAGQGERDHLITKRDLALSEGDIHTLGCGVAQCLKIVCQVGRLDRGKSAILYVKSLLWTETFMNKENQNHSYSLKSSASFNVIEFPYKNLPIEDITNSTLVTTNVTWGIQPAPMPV
T2 sequence (P18084 24-719 limits assumed): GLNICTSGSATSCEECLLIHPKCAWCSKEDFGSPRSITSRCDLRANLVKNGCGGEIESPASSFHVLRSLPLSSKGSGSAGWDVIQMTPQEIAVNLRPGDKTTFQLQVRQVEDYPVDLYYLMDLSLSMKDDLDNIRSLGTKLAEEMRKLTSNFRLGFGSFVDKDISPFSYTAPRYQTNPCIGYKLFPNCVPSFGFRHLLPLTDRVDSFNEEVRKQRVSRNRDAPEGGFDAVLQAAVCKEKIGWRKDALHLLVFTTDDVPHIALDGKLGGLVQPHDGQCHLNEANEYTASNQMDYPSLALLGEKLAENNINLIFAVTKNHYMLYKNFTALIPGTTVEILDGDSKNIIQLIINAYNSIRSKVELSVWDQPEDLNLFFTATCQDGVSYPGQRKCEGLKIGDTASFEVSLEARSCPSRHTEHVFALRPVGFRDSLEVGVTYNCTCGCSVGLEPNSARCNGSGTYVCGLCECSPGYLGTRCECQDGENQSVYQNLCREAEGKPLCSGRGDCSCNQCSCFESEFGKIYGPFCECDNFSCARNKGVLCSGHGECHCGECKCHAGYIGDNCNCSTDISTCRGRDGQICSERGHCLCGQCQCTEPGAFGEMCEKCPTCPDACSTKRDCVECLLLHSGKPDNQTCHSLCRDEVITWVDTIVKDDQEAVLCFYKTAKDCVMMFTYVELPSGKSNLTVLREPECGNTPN
T1 sequence (P06756 31-992 limits assumed): as the sequence (P06756 31-992 limits assumed) above
T1 sequence (P18564 22-707 limits assumed): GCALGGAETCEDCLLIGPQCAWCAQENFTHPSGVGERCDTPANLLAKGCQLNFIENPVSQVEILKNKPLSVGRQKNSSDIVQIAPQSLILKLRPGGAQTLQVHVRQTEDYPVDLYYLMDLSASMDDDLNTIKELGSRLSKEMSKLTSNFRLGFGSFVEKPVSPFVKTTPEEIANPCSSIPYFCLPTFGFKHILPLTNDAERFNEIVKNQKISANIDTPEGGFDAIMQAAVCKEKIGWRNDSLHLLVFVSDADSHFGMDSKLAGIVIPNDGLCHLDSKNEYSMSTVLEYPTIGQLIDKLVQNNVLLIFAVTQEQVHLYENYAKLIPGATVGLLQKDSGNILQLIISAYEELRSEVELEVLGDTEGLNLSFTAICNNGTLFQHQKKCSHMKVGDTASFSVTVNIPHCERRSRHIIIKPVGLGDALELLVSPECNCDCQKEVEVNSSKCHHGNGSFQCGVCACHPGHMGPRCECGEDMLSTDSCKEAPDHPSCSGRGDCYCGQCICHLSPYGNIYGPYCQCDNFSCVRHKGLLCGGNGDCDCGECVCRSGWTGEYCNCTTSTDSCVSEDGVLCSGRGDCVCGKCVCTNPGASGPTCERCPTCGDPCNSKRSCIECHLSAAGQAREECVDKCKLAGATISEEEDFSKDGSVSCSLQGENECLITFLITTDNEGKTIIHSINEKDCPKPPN

Broadly, the IC50 is the concentration that inhibits the measured activity by half. With `Cc1ccc(C(C)(C)C)cc1C(CC(=O)O)Cc1cc(OCCc2ccc3c(n2)NCCC3)n(C)n1` (stereo not shown) [Example 44, 3-(5-tert-butyl-2-methyl-phenyl)-4-[1-methyl-5-[2-(5,6,7,8-tetrahydro-1,8-naphthyridin-2-yl)ethoxy]pyrazol-3-yl]butanoic Acid Trifluoroacetate], the values for the IC50 in assay [1] and in assay [2] were 7.1 µM and 0.076 µM, respectively.

Take `COc1ccc(C#N)cc1C(CC(=O)O)Cc1cc(OCCc2ccc3c(n2)NCCC3)n(C)n1` (stereo not shown) [Example 46, 3-(5-cyano-2-methoxyphenyl)-4-(1-methyl-5-(2-(5,6,7,8-tetrahydro-1,8-naphthyridin-2-yl)ethoxy)-1H-pyrazol-3-yl)butanoic Acid Trifluoroacetate]: the results for the IC50 in assay [1] and in assay [2] were 0.03 µM and 0.001 µM, respectively.

Take `COc1ccc(C(N)=O)cc1C(CC(=O)O)Cc1cc(OCCc2ccc3c(n2)NCCC3)n(C)n1` (stereo not shown) [Example 47, 3-(5-carbamoyl-2-methoxyphenyl)-4-(1-methyl-5-(2-(5,6,7,8-tetrahydro-1,8-naphthyridin-2-yl)ethoxy)-1H-pyrazol-3-yl)butanoic Acid trifluoroacetate]: the concentration for half-maximal inhibition (IC50) amounted to 0.077 µM in assay [1] and 0.0003 µM in assay [2].

As for `COc1ccc(C(=O)O)cc1C(CC(=O)O)Cc1cc(OCCc2ccc3c(n2)NCCC3)n(C)n1` (stereo not shown) [Example 48, 3-(1-carboxy-3-(1-methyl-5-(2-(5,6,7,8-tetrahydro-1,8-naphthyridin-2-yl)ethoxy)-1H-pyrazol-3-yl)propan-2-yl)-4-methoxybenzoic Acid Trifluoroacetate], the results for the IC50 in assay [1] and in assay [2] were 0.68 µM and 0.0007 µM, respectively.

Regarding `Cn1nc(CC(CC(=O)O)c2cccc(C(C)(C)C)c2)cc1OCCc1ccc2c(n1)NCCC2` (stereo not shown) [Example 49, 3-(3-tert-butylphenyl)-4-[1-methyl-5-[2-(5,6,7,8-tetrahydro-1,8-naphthyridin-2-yl)ethoxy]pyrazol-3-yl]butanoic Acid Trifluoroacetate], the IC50 in assay [1] turned out to be 0.094 µM; in assay [2] it was 0.0004 µM.
